The text below walks through data of ChEMBL document CHEMBL3045953, “Pyrazolo[3,4-d]pyrimidine analogues: synthesis, characterization and their in vitro antiamoebic activity” (Med Chem Res, 2013).

A value given as a limit tells only on which side of the number the result lay.

For one test, the system named is MCF7. Kind of test: Cytotoxicity against Homo sapiens (human) MCF-7 cells assessed as decrease in number of viable cells after 48 hr by MTT assay. The test is classed as ADME, cell-based. The conditions noted are these: MCF7, 48 h. Background: Formazan colour is commonly taken as a measure of viable cells.
Take `Cc1ccc(S(=O)(=O)n2nc(-c3ccccc3)c3c(N)ncnc32)cc1`: the IC50 is more than 250 µM. Same read-out and setting: as for `CC(=O)Nc1ccc(S(=O)(=O)n2nc(-c3ccccc3)c3c(N)ncnc32)cc1`, the figure is more than 250 µM; as for `Cc1ncc([N+](=O)[O-])n1CCO` [METRONIDAZOLE], more than 250 µM.

The test system of a further test is Entamoeba histolytica. Put plainly: Antiamoebic activity against Entamoeba histolytica HM-1:IMSS trophozoite assessed as growth inhibition after 72 hr by microdilution method. It counts as functional, organism-based.
Conditions: not given
A general note: In broth dilution the organism is exposed to a series of concentrations in liquid medium.
`Nc1ncnc2c1c(-c1ccccc1)nn2S(=O)(=O)c1ccc([N+](=O)[O-])cc1`: the IC50 is 2.52 µM. Turning to `Cc1ccc(S(=O)(=O)n2nc(-c3ccccc3)c3c(N)ncnc32)cc1`, the IC50 is 0.57 µM. The same measure, in the same setting: as for `Nc1ncnc2c1c(-c1ccccc1)nn2S(=O)(=O)c1ccc(Cl)cc1`, the figure is 3.23 µM. The same measure, in the same setting: as for `CC(=O)Nc1ccc(S(=O)(=O)n2nc(-c3ccccc3)c3c(N)ncnc32)cc1`, the figure is 0.68 µM. Still for that read-out and setting: then `Nc1ncnc2c1c(-c1ccccc1)nn2S(=O)(=O)c1cc(Cl)ccc1Cl`, with 2.37 µM. Take `Nc1ncnc2c1c(-c1ccccc1)nn2S(=O)(=O)c1ccc2ccccc2c1`: the IC50 worked out at 3.11 µM. The same measure, in the same setting: as for `Cc1ccc(-c2cc(-c3cccc(-c4cc(-c5ccc(C)cc5)nc(N5CCCC5)n4)c3)nc(N3CCCC3)n2)cc1`, the figure is 0.16 µM; as for `CS(=O)(=O)n1nc(-c2ccccc2)c2c(N)ncnc21`, 5.15 µM; as for `Nc1ncnc2c1c(-c1ccccc1)nn2S(=O)(=O)c1ccccc1`, 4.24 µM.

A word on the IC50: it is the midpoint of a concentration-inhibition curve.
